From ChEMBL document CHEMBL4052651, “Searching for novel N1-substituted benzimidazol-2-ones as non-nucleoside HIV-1 RT inhibitors” (Bioorg Med Chem, 2017)
pEC50, pIC50: −log10 of the molar value.

Legend:
[1] = target: Human immunodeficiency virus type 1 reverse transcriptase (Human immunodeficiency virus 1, UniProt Q72547, V106A); experiment: Inhibition of HIV-1 reverse transcriptase V106A mutant assessed as reduction in dTTP incorporation using poly(rA)/oligo(dT)16 as template/primer after 40 mins by PicoGreen dye based spectrofluorometric analysis
[2] = target: Human immunodeficiency virus type 1 reverse transcriptase (Human immunodeficiency virus 1, UniProt Q72547, K103N); experiment: Inhibition of HIV-1 reverse transcriptase K103N mutant assessed as reduction in dTTP incorporation using poly(rA)/oligo(dT)16 as template/primer after 40 mins by PicoGreen dye based spectrofluorometric analysis
[3] = Selectivity index, ratio of CC50 for human MT4 cells to EC50 for HIV1 3B infected in human MT4 cells; format: toxicity, cell-based; conditions: HIV1 3B infected MT4 cells, read-out: Ratio CC50/EC50
[4] = target: Human immunodeficiency virus type 1 reverse transcriptase (Human immunodeficiency virus 1, UniProt Q72547, L100I); experiment: Inhibition of HIV-1 reverse transcriptase L100I mutant assessed as reduction in dTTP incorporation using poly(rA)/oligo(dT)16 as template/primer after 40 mins by PicoGreen dye based spectrofluorometric analysis
[5] = target: Human immunodeficiency virus type 1 reverse transcriptase (Human immunodeficiency virus 1, UniProt Q72547, G190A); experiment: Inhibition of HIV-1 reverse transcriptase G190A mutant assessed as reduction in dTTP incorporation using poly(rA)/oligo(dT)16 as template/primer after 40 mins by PicoGreen dye based spectrofluorometric analysis
[6] = Cytotoxicity against human MT4 cells assessed as reduction in cell viability after 5 days by MTT assay; format: cell-based
[7] = target: Human immunodeficiency virus type 1 reverse transcriptase (Human immunodeficiency virus 1, UniProt Q72547, E138K); experiment: Inhibition of HIV-1 reverse transcriptase E138K mutant assessed as reduction in dTTP incorporation using poly(rA)/oligo(dT)16 as template/primer after 40 mins by PicoGreen dye based spectrofluorometric analysis
[8] = target: Human immunodeficiency virus type 1 reverse transcriptase (Human immunodeficiency virus 1, UniProt Q72547, Y181C); experiment: Inhibition of HIV-1 reverse transcriptase Y181C mutant assessed as reduction in dTTP incorporation using poly(rA)/oligo(dT)16 as template/primer after 40 mins by PicoGreen dye based spectrofluorometric analysis
[9] = system: Human immunodeficiency virus 1; experiment: Antiviral activity against HIV1 3B infected in human MT4 cells assessed as inhibition of virus-induced cytopathic effect after 5 days by MTT assay; format: functional, cell-based; conditions: Human immunodeficiency virus 1, 3B, MT4, 120 h
[10] = target: Human immunodeficiency virus type 1 reverse transcriptase (Human immunodeficiency virus 1, UniProt Q72547, Y188L); experiment: Inhibition of HIV-1 reverse transcriptase Y188L mutant assessed as reduction in dTTP incorporation using poly(rA)/oligo(dT)16 as template/primer after 40 mins by PicoGreen dye based spectrofluorometric analysis
[11] = target: Human immunodeficiency virus type 1 reverse transcriptase (Human immunodeficiency virus 1, UniProt Q72547); experiment: Inhibition of recombinant wild-type HIV-1 reverse transcriptase p66/p51 RNA-dependent DNA polymerase activity expressed in Escherichia coli JM109 assessed as reduction in dTTP incorporation using poly(rA)/oligo(dT)16 as template/primer after 40 mins by PicoGreen dye based spectrofluorometric analysis

| SMILES | pIC50 [1] | pIC50 [2] | selectivity ratio [3] | pIC50 [4] | pIC50 [5] | CC50 at 120 h [6] [µM] | pIC50 [7] | pIC50 [8] | pEC50 [9] | pIC50 [10] | pIC50 [11] |
| --- | --- | --- | --- | --- | --- | --- | --- | --- | --- | --- | --- |
| O=c1[nH]c2ccc(Cl)cc2n1S(=O)(=O)Cc1ccccc1Cl | 5.74 | < 3.47 | 271 | 5.15 | 3.62 | 52 | 4.92 | < 3.47 | 6.72 | < 3.47 | 5.89 |
| Cc1ccccc1CCS(=O)(=O)n1c(=O)[nH]c2ccc(Cl)cc21 | 4.36 | 4.05 | < 1 | 4.23 | 4.27 | 32 | 4.31 | 4.49 | < 4.49 | 3.78 | 4.54 |
| O=c1[nH]c2ccc(Cl)cc2n1S(=O)(=O)Cc1ccccc1 | 5.03 | < 3.43 | 187 | 4.05 | 3.60 | 155 | 4.01 | ≤ 3.56 | 6.08 | < 3.43 | 4.77 |
| O=c1[nH]c2ccc(Cl)cc2n1S(=O)(=O)Cc1cccc(Cl)c1 | 5.18 | < 3.47 | 134 | 4.54 | 3.59 | 152 | 4.19 | < 3.47 | 5.94 | < 3.47 | 5.22 |
| O=c1[nH]c2ccc(Cl)cc2n1S(=O)(=O)CCc1ccccc1 | < 3.45 | < 3.45 | < 1 | < 3.45 | < 3.45 | 30 | < 3.45 | < 3.45 | < 4.52 | < 3.45 | 4.12 |
| Cc1cccc(CS(=O)(=O)n2c(=O)[nH]c3ccc(Cl)cc32)c1 | 6.05 | 3.98 | 1380 | 5.52 | 3.88 | 110 | 5.12 | 4.01 | 7.10 | < 3.45 | 6.10 |
| O=c1[nH]c2ccc(Cl)cc2n1S(=O)(=O)CCc1ccc(Cl)cc1 | 4.16 | 3.64 | < 1 | 3.74 | 4.16 | 91 | 3.97 | 3.97 | < 4.04 | 3.64 | 4.02 |
| O=C1Nc2ccc(Cl)cc2[C@@](C#CC2CC2)(C(F)(F)F)O1 [EFAVIRENZ] |  |  |  |  |  | > 6.33 |  |  |  |  |  |
| Cc1cccc(CCS(=O)(=O)n2c(=O)[nH]c3ccc(Cl)cc32)c1 | 4.13 | 3.92 | < 1 | 4.19 | 4.05 | 31 | 4.06 | 4.10 | < 4.51 | 3.66 | 4.41 |
| Cc1ccc(CS(=O)(=O)n2c(=O)[nH]c3ccc(Cl)cc32)cc1 | 5.18 | 3.55 | 48 | 4.26 | ≤ 3.51 | 93 | 4.20 | 3.74 | 5.71 | 3.55 | 5.65 |
| Cc1ccnc2c1NC(=O)c1cccnc1N2C1CC1 [NEVIRAPINE] |  |  |  |  |  | > 15 |  |  | 6.74 |  |  |
| Cc1ccc(CCS(=O)(=O)n2c(=O)[nH]c3ccc(Cl)cc32)cc1 | 4.02 | < 3.47 | < 1 | 3.51 | 4.05 | 161 | 3.80 | 3.75 | < 3.80 | 3.60 | 3.66 |
| Cc1ccccc1CS(=O)(=O)n1c(=O)[nH]c2ccc(Cl)cc21 | < 3.45 | < 3.45 | 24 | ≤ 4.19 | < 3.45 | 238 | < 3.45 | < 3.45 | 5.00 | < 3.45 | 4.68 |
| O=c1[nH]c2ccc(Cl)cc2n1S(=O)(=O)CCc1cccc(Cl)c1 | 4.35 | < 3.49 | < 1 | ≤ 3.55 | 3.59 | 63 | < 3.49 | 4.13 | < 4.19 | < 3.49 | 3.88 |
| O=c1[nH]c2ccc(Cl)cc2n1S(=O)(=O)Cc1ccc(Cl)cc1 | 4.82 | < 3.47 | 15 | 4.04 | < 3.47 | 77 | ≤ 3.55 | < 3.47 | 5.30 | < 3.47 | 4.74 |
| O=c1[nH]c2ccc(Cl)cc2n1S(=O)(=O)CCc1ccccc1Cl | 3.86 | < 3.49 | < 1 | 3.67 | 3.55 | 100 | ≤ 3.49 | 3.75 | < 4.00 | < 3.49 | 3.94 |
